Test results: the NIST ThermoML archive (doi:10.1021/je800727f)

Settings: for viscosity / mass density: 101.33 kPa, Liquid; for viscosity: dissipative quartz crystal microbalance from KSV (QCMZ500)

C[n+]1ccn(CCO)c1.F[B-](F)(F)F [1-(2-hydroxyethyl)-3-methylimidazolium tetrafluoroborate]
Settings | mass density [kg/m3] | surface tension liquid-gas [mN/m] | viscosity [mPa·s]
293.15 K | – | – | 1554
298.15 K | 1308 | – | 974
303.15 K | 1304.7 | – | –
308.15 K | 1301.4 | – | 477
313.15 K | 1296.1 | – | –
318.15 K | 1294.7 | – | 257
323.15 K | 1291.5 | – | –
328.15 K | 1288.3 | – | 156
572 K | – | 64.7 | –
577.78 K | – | 64.6 | –
587.55 K | – | 64 | –
597.81 K | – | 63.5 | –
607.58 K | – | 62.7 | –
626.51 K | – | 61.7 | –
645.35 K | – | 59.9 | –
665.48 K | – | 59.1 | –
684.42 K | – | 57.5 | –
703.95 K | – | 56.4 | –
725.28 K | – | 55.4 | –
743.71 K | – | 53.6 | –

CCCCCCCC[n+]1ccn(C)c1.F[B-](F)(F)F [1-methyl-3-octylimidazolium tetrafluoroborate]
Settings | mass density [kg/m3] | surface tension liquid-gas [mN/m] | viscosity [mPa·s]
293.15 K | – | – | 413
298.15 K | 1100.5 | – | 325
308.15 K | 1093.7 | – | 205
318.15 K | 1087.1 | – | 129
328.15 K | 1080.5 | – | 86
570.95 K | – | 32.7 | –
586.35 K | – | 32.4 | –
606.62 K | – | 31.3 | –
625.26 K | – | 30.2 | –
646.29 K | – | 28.1 | –
665.98 K | – | 27.7 | –
685.41 K | – | 27.2 | –
704.75 K | – | 25.3 | –
724.78 K | – | 24.5 | –
743.71 K | – | 23.7 | –
